Values of other authors, collected in patent US4782898A, “Determining residual oil saturation using carbon 14 labeled carbon dioxide” (priority 1986, dated 1988).

Compound | distribution coefficient, Ki (ratio of concentration of tracer in the oil phase to that in the water phase)
O=C=O [CO2, carbon dioxide] | about 2
O=[14C]=O [carbon 14 labeled CO2] | about 2
